Data from the supplement of paper PMC9663587.

Tests used:
Test in all cases: GRmax, 72 h; higher = less effect;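 note: breast cell lines in 384-well plates, nine doses across a 10^4 range, Dye Drop imaging of viable cells vs DMSO and time-zero plates, GR 0 means no net growth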
184A1 = tested on: 184A1
BT20 = tested on: BT20
CAL120 = tested on: CAL120
EVSAT = tested on: EVSAT
HCC1806 = tested on: HCC1806
HCC70 = tested on: HCC70
MCF7 = tested on: MCF7
MDAMB468 = tested on: MDAMB468
SUM159 = tested on: SUM159
SUM229PE = tested on: SUM229PE
SUM44PE = tested on: SUM44PE
UACC812 = tested on: UACC812
ZR751 = tested on: ZR751

| SMILES | GRmax, 72 h (184A1) [GR] | GRmax, 72 h (BT20) [GR] | GRmax, 72 h (CAL120) [GR] | GRmax, 72 h (EVSAT) [GR] | GRmax, 72 h (HCC1806) [GR] | GRmax, 72 h (HCC70) [GR] | GRmax, 72 h (MCF7) [GR] | GRmax, 72 h (MDAMB468) [GR] | GRmax, 72 h (SUM159) [GR] | GRmax, 72 h (SUM229PE) [GR] | GRmax, 72 h (SUM44PE) [GR] | GRmax, 72 h (UACC812) [GR] | GRmax, 72 h (ZR751) [GR] |
| --- | --- | --- | --- | --- | --- | --- | --- | --- | --- | --- | --- | --- | --- |
| CC(C)NC[C@@H](C(=O)N1CCN(c2ncnc3c2[C@H](C)C[C@H]3O)CC1)c1ccc(Cl)cc1 [Ipatasertib/GDC0068] (max 10 µM) | 0.631 | 0.102 | 0.599 | -0.311 | 0.945 | -0.262 | 0.25 | 0.309 | 0.591 | 0.499 | -0.0416 | 0.0704 | 0.608 |
| Nc1ccc(-c2ccc3ncc4ccc(=O)n(-c5cccc(C(F)(F)F)c5)c4c3c2)cn1 [Torin2] (max 1 µM) | 0.0958 | -0.289 | -0.0115 | -0.334 | -0.14 | -0.555 | -0.133 | -0.0415 | 0.172 | -0.0085 | -0.556 | -0.817 | -0.0631 |
| NC1(C(=O)N[C@@H](CCO)c2ccc(Cl)cc2)CCN(c2nc[nH]c3nccc2-3)CC1 [AZD5363] (max 10 µM) | 0.773 | 0.229 | 0.806 | -0.441 | 0.789 | -0.292 | 0.476 | 0.545 | 0.444 | 0.516 | -0.152 | 0.485 | 0.686 |
| CN(C)C/C=C/C(=O)Nc1ccc(C(=O)Nc2cccc(Nc3cc(-c4c[nH]c5ccccc45)ncn3)c2)cc1 [THZ-P1-2] (max 10 µM) | -0.344 | -0.623 | -0.278 | 0.76 | -0.467 | -0.837 | -0.708 | -0.523 | -0.394 | -0.655 | -0.518 | -0.371 | 0.262 |
| O=C1NC(=O)[C@@H](c2cn3c4c(cccc24)CCC3)[C@@H]1c1c[nH]c2ccccc12 [Tivantinib/ARQ197] (max 10 µM) | -0.121 | -0.488 | -0.256 | -0.336 | -0.218 | -0.566 | -0.0512 | -0.455 | -0.281 | -0.423 | -0.338 | -0.84 | -0.0475 |
| CN1CC[C@H](c2c(O)cc(O)c3c(=O)cc(-c4ccccc4Cl)oc23)[C@H](O)C1 [Flavopiridol] (max 1 µM) | -0.329 | -0.639 | -0.0459 | -0.514 | -0.568 | -0.811 | -0.291 | -0.351 | -0.051 | -0.181 | -0.573 | -0.813 | -0.353 |
| CN(C)C/C=C/C(=O)Nc1ccc(C(=O)Nc2cccc(Nc3ncc(Cl)c(-c4c[nH]c5ccccc45)n3)c2)cc1 [THZ1] (max 1 µM) | -0.232 | -0.385 | -0.128 | -0.245 | -0.658 | -0.944 | -0.469 | -0.377 | -0.122 | -0.297 | -0.292 | -0.348 | -0.163 |
| CNc1nc(-c2ccc3c(N)n[nH]c3c2)cc(N2C[C@@H](C(=O)NC3CCCCC3)CC[C@H]2C)n1 (max 10 µM) | 0.572 | 0.68 | 0.786 | -0.049 | 0.869 | 0.15 | 0.295 | 0.531 | 0.6 | 0.696 | 0.166 | 0.166 | 0.425 |
| CCC(=O)Nc1ccc(C(=O)Nc2ccc(Nc3ncc4c(n3)N(C)c3ccc(C)cc3C(=O)N4C)cc2)cc1 [FMF-03-145-1] | -0.0063 | -0.201 | 0.191 | -0.139 | -0.09 | -0.317 | 0.0265 | -0.46 | -0.12 | -0.209 | -0.0614 | -0.198 | 0.153 |
| CC(C)n1nc(-c2ccc3oc(N)nc3c2)c2c(N)ncnc21 [INK128/MLN0128] (max 3.162 µM) | 0.139 | -0.0045 | -0.0097 | -0.31 | 0.262 | -0.162 | -0.045 | 0.0572 | 0.214 | 0.219 | -0.523 | -0.707 | -0.0856 |
| O=C1NC(=NCc2cccs2)SC1=Cc1ccc2ncccc2c1 [R0-3306] (max 10 µM) | -0.142 | -0.274 | 0.15 | -0.27 | -0.112 | -0.204 | 0.067 | -0.271 | 0.101 | -0.07 | -0.266 | -0.171 | 0.51 |
| COc1cc2c(Oc3ccc4[nH]c(C)cc4c3F)ncnc2cc1OCCCN1CCCC1 [Cediranib/AZD2171] (max 10 µM) | 0.167 | 0.221 | -0.124 | 0.498 | 0.0954 | -0.326 | 0.115 | -0.708 | 0.518 | 0.18 | 0.417 | -0.575 | 0.672 |
| CN(C)CC[C@H](CSc1ccccc1)Nc1ccc(S(=O)(=O)NC(=O)c2ccc(N3CCN(Cc4ccccc4-c4ccc(Cl)cc4)CC3)cc2)cc1[N+](=O)[O-] [ABT-737] (max 10 µM) | -0.0149 | 0.593 | -0.434 | 0.697 | 0.729 | -0.0638 | 0.727 | 0.142 | 0.781 | 0.418 | -0.0028 | 0.329 | 0.886 |
| COc1cc(N2CCN(C)CC2)ccc1Nc1ncc2c(n1)N(C)c1ccccc1C(=O)N2CC(F)(F)F [FMF-03-146-1] | 1.04 | 0.973 | 0.968 | 0.994 | 0.942 | 0.926 | 0.78 | 0.706 | 0.898 | 0.999 | 0.946 | 0.918 | 0.939 |
| CCc1cncnc1N1CCN(Cc2nc3ccc(C(F)(F)F)cc3[nH]2)CC1 (max 10 µM) | 1.02 | 0.66 | 0.924 | 0.711 | 1.15 | 0.935 | 0.558 | 0.0813 | 0.846 | 0.743 | 0.292 | -0.22 | 0.867 |
| CO[C@H]1C[C@@H]2CC[C@@H](C)[C@@](O)(O2)C(=O)C(=O)N2CCCC[C@H]2C(=O)O[C@H]([C@H](C)C[C@@H]2CC[C@@H](OCCO)[C@H](OC)C2)CC(=O)[C@H](C)/C=C(\C)[C@@H](O)[C@@H](OC)C(=O)[C@H](C)C[C@H](C)/C=C/C=C/C=C/1C [Everolimus] (max 10 µM) | 0.501 | 0.39 | 0.527 | 0.354 | 0.817 | 0.373 | 0.387 | 0.527 | 0.866 | 0.686 | 0.19 | -0.0713 | 0.305 |
| CN1CCN(C(=O)c2ccc3cc(CCNc4ncnc5ccc(C#N)cc45)ccc3c2)CC1 [senexin b] (max 10 µM) | 0.809 | 0.175 | 0.856 | 0.642 | 0.817 | 0.458 | 0.474 | 0.132 | 0.881 | 0.696 | 0.309 | 0.248 | 0.845 |
| C[C@@H]1COCCN1c1cc(C2([S@](C)(=N)=O)CC2)nc(-c2cc[nH]c3nccc2-3)n1 [AZD6738] (max 10 µM) | 0.518 | 0.187 | 0.783 | 0.742 | -0.326 | -0.532 | 0.0472 | 0.529 | 0.497 | -0.0688 | -0.206 | 0.305 | 0.598 |
| COc1ccc2c(c1)[C@]1(C[C@H]1c1ccc3c(/C=C/c4ccc(CN5C[C@@H](C)O[C@@H](C)C5)cc4)n[nH]c3c1)C(=O)N2 | 0.0075 | -0.231 | 0.175 | -0.0524 | -0.106 | -0.31 | -0.0551 | -0.38 | -0.119 | -0.0183 | -0.249 | -0.135 | 0.166 |
| CC(=O)O[C@H]1C(=O)[C@@]2(C)[C@H]([C@H](OC(=O)c3ccccc3)[C@]3(O)C[C@H](OC(=O)[C@H](O)[C@@H](NC(=O)c4ccccc4)c4ccccc4)C(C)=C1C3(C)C)[C@]1(OC(C)=O)CO[C@@H]1C[C@@H]2O [Paclitaxel] (max 1 µM) | -0.268 | -0.576 | -0.199 | -0.271 | -0.211 | -0.506 | -0.106 | -0.522 | -0.201 | -0.377 | -0.474 | -0.852 | -0.0835 |
| CCCCOc1c(C(=O)c2c(F)cc(C)cc2F)c[nH]c2nncc1-2 (max 10 µM) | -0.0413 | -0.105 | 0.369 | 0.279 | 0.0151 | -0.164 | 0.072 | -0.112 | 0.26 | 0.0454 | -0.234 | -0.394 | 0.451 |
| Cc1nc(-c2cn3c(n2)-c2ccc(-c4cnn(C(C)(C)C(N)=O)c4)cc2OCC3)n(C(C)C)n1 [Taselisib/GDC0032] (max 10 µM) | 0.0652 | -0.375 | 0.151 | -0.535 | -0.0297 | -0.685 | -0.255 | 0.0046 | 0.187 | -0.0501 | -0.392 | -0.636 | -0.0193 |
| Cc1nn(C)c(COc2ccc(N3CCN(S(=O)(=O)N(C)C)CC3)cc2)c1-c1cccc2c(CCCOc3cccc4ccccc34)c(C(=O)O)n(CCN3CCOCC3)c12 (max 10 µM) | -0.164 | 0.821 | 0.943 | 0.901 | 0.905 | 0.938 | 0.877 | 0.93 | 0.83 | 0.547 | -0.463 | 0.991 | 1.03 |
| C=CC(=O)Nc1ccc(C(=O)Nc2[nH]nc3c2CN(C(=O)N[C@H](CN(C)C)c2ccccc2)C3(C)C)cc1 [YKL-5-124] (max 10 µM) | -0.0615 | -0.153 | 0.182 | -0.401 | -0.469 | -0.835 | -0.268 | -0.493 | -0.137 | -0.0428 | -0.448 | -0.403 | 0.13 |
| Cc1cc(C(C)Nc2ccccc2)c2nc(N3CCOCC3)cc(=O)n2c1 (stereo not drawn) [TGX221] (max 10 µM) | 1 | 1.02 | 1.02 | 0.331 | 0.982 | 0.0049 | 0.789 | 0.723 | 1.02 | 0.994 | 1.04 | 0.0432 | 0.239 |
| CC1(N)CCN(c2cnc(-c3cccc(Cl)c3Cl)c(N)n2)CC1 [SHP099] (max 10 µM) | 0.279 | 0.914 | 0.869 | 0.952 | 0.988 | 0.708 | 0.847 | 0.567 | 0.821 | 0.936 | 0.807 | 0.651 | 0.829 |
